Results from patent publication US20040192554A1, “Technique for effectively treating an agricultural product with a 1-substituted-cyclopropene” (priority 2003, published 2004).

Tests used:
[1] = test system: Japanese pear (variety "Shinsei") fruit; test: Quality deterioration of Japanese pear (Shinsei) fruit after storage, Example 2; assay type: in vivo; conditions: 1 ppm, after storage 25 degrees C 2 weeks
Procedure: Using a Japanese pear (variety “Shinsei”) fruit (6 fruits were used per group) as an agricultural product, the following experiment was performed.
(§1) 1) A fruit and 1-methylcyclopropene (concentration 1 ppm in a chamber) were placed into a sealed chamber, and contact-treated for 16 hours under a normal pressure.
2) A fruit was placed into a sealed chamber, and a pressure in the chamber was reduced to 12.5 kPa. Subsequently, 1-methylcyclopropene was placed therein to the concentration in the chamber of 1 ppm, and contact-treated for 1 minute or 10 minutes under the reduced pressure (12.5 kPa).
(§2) The fruit which had been subjected to treatment of the above-mentioned 1) or 2) was stored at 25 degrees C for 2 weeks, and hardness of flesh and pH of a fruit juice which is an index for the content of an acid were measured. In addition, browning of flesh and fruit core, which is an index for an extent of storage disorder was assessed by naked eyes. Contact treatment of the above-mentioned 1) or 2) was performed on a day of harvesting a fruit. In addition, also regarding a fruit undergoing no treatment of 1) or 2) (non-treatment), similar storage was performed, and the above-mentioned index was measured and assessed. Further, regarding non-treated fruit, the above-mentioned index before storage was also measured and assessed. Different alpha characters in the same column after storage indicate that a significant difference was recognized at a risk rate of 5% (multiple range test of Newman-Keuls).

[2] = test system: Japanese pear (variety "Hosui") fruit; test: Quality deterioration of Japanese pear (Hosui) fruit after storage, Example 4; assay type: in vivo; conditions: 1 ppm, after storage 25 degrees C 2 weeks
Procedure: Using a Japanese pear (variety “Hosui”) fruit (6 fruits were used per group) as an agricultural product, the following experiment was performed.
as §1
2) A fruit was placed into a sealed chamber, and a pressure in the chamber was reduced to 25.0 kPa. Subsequently, 1-methylcyclopropene was placed therein to the concentration in the chamber of 1 ppm, and contact-treated for 1 minute under the reduced pressure (25.0 kPa).
as §2, with “measured.” for “measured. In addition, browning of flesh and fruit core, which is an index for an extent of storage disorder was assessed by naked eyes.”, “measured.” for “measured and assessed.”, “Table 4” for “the same column after storage”

[3] = Reduced pressure (12.5 kPa) 1 minute
[4] = Reduced pressure (12.5 kPa) 10 minutes
[5] = Reduced pressure (25.0 kPa) 1 minute

## CC1=CC1 [1-MCP, 1-methylcyclopropene]
[1]; Normal pressure 16 hours
  Hardness of flesh: 22.74c N
  Presence or absence of browning: Absence
  pH of fruit juice: 4.92a
[1]; [3]
  Hardness of flesh: 18.72b N
  Presence or absence of browning: Absence
  pH of fruit juice: 4.90a
[1]; [4]
  Hardness of flesh: 22.25c N
  Presence or absence of browning: Absence
  pH of fruit juice: 5.00ab
[2]; Normal pressure 16 hours
  Hardness of flesh: 18.72 N
  pH of fruit juice: 4.37a
[2]; [5]
  Hardness of flesh: 17.25 N
  pH of fruit juice: 4.43a
